According to patent US20240251792A1, “WEED CONTROL METHOD” (SYNGENTA CROP PROTECTION AG, priority 2021, published 2024):
Like-named read-outs stand apart in the source and are kept apart here.

Assays:
Assay type in all cases: in vivo
ABUTH = experiment: Pre-emergence biological efficacy (Table 3); conditions: after 13 days; for pest or weed control at 1000 g/ha: Abutilon theophrasti, 312 h, read-out: evaluation (100=total damage to plant; 0=no damage to plant)
Procedure: (§1) Seeds of weeds and/or crops were sown in standard soil in pots. After cultivation for one day under controlled conditions in a glasshouse (at 24/19° C., day/night; 16 hours light), the plants were sprayed with an aqueous spray solution derived from the formulation of the technical active ingredient in a small amount of acetone and a special solvent and emulsifier mixture referred to as AMA (11.12% Emulsogen EL360 TM+44.44% N-methylpyrrolidone+44.44% Dowanol DPM glycol ether), to create a 50 g/l solution which was then diluted using 0.2% Genapol X080 as diluent to give the desired final dose of test compound.
(§2) The test plants were then grown under controlled conditions in the glasshouse (at 24/18° C., day/night; 15 hours light; 50% humidity) and watered twice daily. After 13 days the test was evaluated (100=total damage to plant; 0=no damage to plant).

AMARE = experiment: Pre-emergence biological efficacy (Table 3); conditions: 1000 g/ha, after 13 days; for pest or weed control at 1000 g/ha: Amaranthus retroflexus, 312 h, read-out: evaluation (100=total damage to plant; 0=no damage to plant)
Procedure: as §1, §2

IPOHE = experiment: Pre-emergence biological efficacy (Table 3); conditions: 1000 g/ha, after 13 days; for pest or weed control at 1000 g/ha: Ipomoea hederacea, 312 h, read-out: evaluation (100=total damage to plant; 0=no damage to plant)
Procedure: as §1, §2

STEME = experiment: Pre-emergence biological efficacy (Table 3); conditions: after 13 days; for pest or weed control at 1000 g/ha: 312 h, read-out: evaluation (100=total damage to plant; 0=no damage to plant)
Procedure: as §1, §2

ZEAMX = experiment: Pre-emergence biological efficacy (Table 3); conditions: 1000 g/ha, after 13 days; for plant injury at 1000 g/ha: 312 h, read-out: evaluation (100=total damage to plant; 0=no damage to plant)
Procedure: as §1, §2

weeds and/or crops = experiment: Post-emergence biological efficacy (Table 4); conditions: 1000 g/ha, evaluated after 13 days; for pest or weed control at 1000 g/ha: 312 h
Procedure: as §1, with “14 days” for “one day”, “F50” for “AMA”
as §2

ECHCG = experiment: Pre-emergence biological efficacy (Table 3); conditions: Echinochloa crus-galli, 312 h, 1000 g/ha, after 13 days, read-out: evaluation (100=total damage to plant; 0=no damage to plant)
Procedure: as §1, §2

[1] = STEME, read-out: damage to plant STEME (100=total damage; 0=no damage)
[2] = ZEAMX, read-out: damage to plant ZEAMX (100=total damage; 0=no damage)
[3] = Abutilon theophrasti, ABUTH, read-out: damage to plant ABUTH (100=total damage; 0=no damage)
[4] = Amaranthus retroflexus, AMARE, read-out: damage to plant AMARE (100=total damage; 0=no damage)
[5] = Ipomoea hederacea, IPOHE, read-out: damage to plant IPOHE (100=total damage; 0=no damage)
[6] = Echinochloa crus-galli, ECHCG, read-out: damage to plant ECHCG (100=total damage; 0=no damage)

| SMILES | pest or weed control at 1000 g/ha (ABUTH) | pest or weed control at 1000 g/ha (AMARE) | pest or weed control at 1000 g/ha (IPOHE) | pest or weed control at 1000 g/ha (STEME) | plant injury at 1000 g/ha (ZEAMX) | pest or weed control at 1000 g/ha (weeds and/or crops; [1]) | pest or weed control at 1000 g/ha (weeds and/or crops; [2]) | pest or weed control at 1000 g/ha (weeds and/or crops; [3]) | pest or weed control at 1000 g/ha (weeds and/or crops; [4]) | pest or weed control at 1000 g/ha (weeds and/or crops; [5]) | further results |
| --- | --- | --- | --- | --- | --- | --- | --- | --- | --- | --- | --- |
| CCc1cccc(C(F)(F)C(=O)O)c1Cl [Compound 1-196, 2-(2-Chloro-3-ethyl-phenyl)-2,2-difluoro-acetic acid] | 70% | 40% | 70% | 80% | 20% | 90% | 10% | 80% | 50% | 70% | – |
| CCOC(=O)C(F)(F)c1c(Cl)cccc1[N+](=O)[O-] [Compound 3-67, Ethyl 2-(2-chloro-6-nitrophenyl)-2,2-difluoroacetate] | 0% | 10% | 20% | 10% | 0% | 0% | 20% | 10% | 50% | 50% | – |
| Nc1ccc(Cl)cc1C(F)(F)C(=O)[O-].[Li+] [Compound 5-251, Lithium;2-(2-amino-5-chloro-phenyl)-2,2-difluoro-acetate] | – | – | – | – | – | – | – | – | – | – | evaluation (100=total damage to plant; 0=no damage to plant) (ABUTH; 1000 g/ha): 10; evaluation (100=total damage to plant; 0=no damage to plant) (AMARE): 20; evaluation (100=total damage to plant; 0=no damage to plant) (IPOHE): 0; evaluation (100=total damage to plant; 0=no damage to plant) (STEME; 1000 g/ha): 10; evaluation (100=total damage to plant; 0=no damage to plant) (ZEAMX): 0; damage to plant ABUTH (100=total damage; 0=no damage) (weeds and/or crops; ABUTH): 20; damage to plant AMARE (100=total damage; 0=no damage) (weeds and/or crops; AMARE): 40; damage to plant ECHCG (100=total damage; 0=no damage) (weeds and/or crops; ECHCG): 0; damage to plant IPOHE (100=total damage; 0=no damage) (weeds and/or crops; IPOHE): 20; damage to plant STEME (100=total damage; 0=no damage) (weeds and/or crops; STEME): 20; damage to plant ZEAMX (100=total damage; 0=no damage) (weeds and/or crops; ZEAMX): 0 |
| C#Cc1cccc(C(F)(F)C(=O)O)c1Cl [Compound 1-208, 2-(2-Chloro-3-ethynyl-phenyl)-2,2-difluoro-acetic acid] | 100% | 90% | 90% | 100% | 80% | 90% | 70% | 90% | 90% | 90% | – |
| O=C(O)C(F)(F)c1cccc(O)c1 [Compound 1-5, 2,2-Difluoro-2-(3-hydroxyphenyl)acetic acid] | 10% | 10% | 20% | 20% | 10% | 20% | 10% | – | 20% | 20% | pest or weed control at 1000 g/ha (weeds and/or crops; [6]): 10% |
| O=C(O)C(F)(F)c1c(Cl)cccc1[N+](=O)[O-] [Compound 1-67, 2-(2-Chloro-6-nitrophenyl)-2,2-difluoroacetic acid] | 0% | 0% | 30% | 0% | 10% | 10% | 10% | 10% | 30% | 60% | – |
| COc1c(Cl)ccc(F)c1C(F)(F)C(=O)O [Compound 7-325, 2-(3-Chloro-6-fluoro-2-methoxyphenyl)-2,2-difluoroacetic acid] | 20% | 50% | 50% | 30% | 10% | 60% | 20% | 50% | 60% | 50% | – |
| O=C(O)C(F)(F)c1cc(Cl)c(Cl)cc1O [Compound 1-298, 2-(4,5-Dichloro-2-hydroxy-phenyl)-2,2-difluoro-acetic acid] | 0% | 0% | 0% | 0% | 0% | 0% | 20% | 10% | 10% | 10% | – |
| C=Cc1cccc(C(F)(F)C(=O)O)c1Cl [Compound 1-207, 2-(2-Chloro-3-vinyl-phenyl)-2,2-difluoro-acetic acid] | 90% | 80% | 90% | 90% | 30% | 90% | 30% | 80% | 70% | 80% | – |
| O=C(O)C(F)(F)c1cc(-c2ccc(F)cc2)ccc1Cl [Compound 1-64, 2-(4-Chloro-4′-fluoro-[1,1′-biphenyl]-3-yl)-2,2-difluoroacetic acid] | 0% | 0% | 10% | 0% | 10% | 0% | 40% | 0% | 50% | 50% | – |
| O=C(O)C(F)(F)c1cc(O)ccc1Cl [Compound 1-61, 2-(2-Chloro-5-hydroxyphenyl)-2,2-difluoroacetic acid] | 0% | 20% | 0% | 0% | 0% | 10% | 10% | 10% | 10% | 20% | – |
| Nc1c(Cl)cc(Cl)cc1C(F)(F)C(=O)O [Compound 7-253, Ammonium 2-(2-amino-3,5-dichloro-phenyl)-2,2-difluoro-acetate] | 0% | 0% | 0% | – | – | 60% | 10% | 40% | 60% | 70% | pest or weed control at 1000 g/ha (ECHCG): 0%; pest or weed control at 1000 g/ha (weeds and/or crops; [6]): 0% |
| O=C(O)C(F)(F)c1cc(-c2ccc(F)cc2)cc(Cl)c1Cl [Compound 1-78, 2-(4,5-Dichloro-4′-fluoro-[1,1′-biphenyl]-3-yl)-2,2-difluoroacetic acid] | – | 0% | 0% | 0% | 0% | 0% | 30% | 10% | 50% | 40% | – |
| COc1c(Cl)cc(Cl)c(Cl)c1C(F)(F)C(=O)O [Compound 1-82, 2,2-Difluoro-2-(2,3,5-trichloro-6-methoxy-phenyl)acetic acid] | – | 60% | 20% | 30% | 0% | 10% | 20% | 20% | 60% | 30% | – |
